Experimental data published in US12692232B2, “Indole carboxamide compound, preparation therefor and use thereof” (NANJING RUISHUNING MEDICAL TECHNOLOGY CO., LTD., priority 2021, dated 2026).

Columns and labels:
Type in all cases: in vivo
[1] = tested on: H22 liver subcutaneous transplanted tumor; assay: Mouse model of H22 liver subcutaneous transplanted tumor; settings: 20 mg/kg injected intraperitoneally 14 days (positive drug)
Method: (§1) The method was as follows:
Experimental procedure: H22 hepatoma cell suspension was adjusted to 1×10^7/mL after dilution and counting with normal saline, and 0.2 mL per mouse was inoculated on the back of the mice. After 24 hours, the mice were weighed and administered drug at a dose of 0.1 mL/10 g once a day, wherein the mice in the solvent control group and the treatment groups were administered 0.9% sodium chloride solution and the compound of the present invention, respectively, for 14 days, and the mice in the CTX group were injected intraperitoneally for 14 days. The mice were weighed after 14 days. The animals were executed and the tumor blocks were removed and weighed separately. The tumor inhibition rate was calculated according to the following formula: tumor inhibition rate (%)=(1−average tumor weight in a treatment group/average tumor weight in the solvent control group)×100%.

[2] = tested on: mouse model of focal segmental glomerulosclerosis; assay: Mouse model of focal segmental glomerulosclerosis (adriamycin)
Method: as §1
Each mouse in the model group, the treatment groups and the positive control group was injected once into the tail vein with adriamycin at a dose of 8 mg/kg, and each mouse in the control group was injected once into the tail vein with saline at the same dose. The mice in the control group and model group were administered equal amount of saline by gavage for 6 weeks, and the mice in other group were administered corresponding compound in doses by gavage at a fixed time each day for 6 weeks after modelling with adriamycin. The body weights were recorded weekly and urine samples were collected.
Collection of urine samples: animals were placed in separate metabolic cages by group on days 0, 7, 14, 21, 28, 35, and 42 after modelling, with free access to water and no access to food, and urine samples were collected from each group of mice.
Determination of urine protein level using Coomassie brilliant blue (CBB) method: urine protein level was determined by urine protein quantitative test kit (Nanjing Jiancheng Bioengineering Institute). CBB working solution was prepared according to the kit instructions. 0.05 mL of each urine sample was mixed with 3 mL of CBB working solution, the mixture was allowed to stand for 5 min, and the absorbance value of each sample was determined at 595 nm. The urine protein levels samples of each group was calculated according to the protein standardization formula: urine protein level (mg/L)=(measured OD−blank OD)/(standard OD−blank OD)×563 mg/L.
Collection of serum samples: orbital blood from each mouse was collected in an EP tube, placed at 37° C. for 20 minutes, and centrifuged to obtain an upper layer of serum.
Collection of plasma samples: orbital blood from each mouse was collected in an anticoagulation tube, mixed well and stored at 4° C. for later use.
Determination of urea nitrogen level in plasma by diacetyl monoxime method: urea nitrogen level was determined by using blood urea nitrogen (BUN) test kit (Nanjing Jiancheng Bioengineering Institute). According to the kit instructions, 0.05 mL of anticoagulated plasma sample was mixed with 1 mL of oxime solution and 1 mL of acid working solution, and the mixtures were placed in a boiling water bath for 15 minutes. A UV-visible spectrophotometer was used to determine the absorbance values of each tube at a wavelength of 520 nm. Urea nitrogen levels in plasma samples of each group were calculated according to the formula: Urea nitrogen level (mmol/L)=(measured OD value−blank OD value)/(standard OD value−blank OD value)×10 mmol/L.
Collection of kidney tissue samples: kidneys were taken from mice after anesthesia, cut horizontally, and the upper part of the kidneys was embedded in OCT embedding box, sliced with frozen slicer and stored at −20° C.
H&E staining was used to assess pathological glomerular changes, and the procedure was as follows: frozen sections were fixed with 95% ethanol for 2 minutes, hydrated with distilled water, stained with hematoxylin for 3 minutes, washed with distilled water for 3 minutes, differentiated using 1% hydrochloric acid in ethanol for 10 seconds, washed with distilled water for 30 seconds, returned to blue in running water for 5 minutes, washed in distilled water for 30 seconds, stained with eosin for 30 seconds, washed with 75% and 85% ethanol for 20 seconds each, dehydrated rapidly with 95% ethanol for 1 minute, dehydrated with anhydrous ethanol, cleared to transparency in xylene (1 minute×3), and finally sealed with neutral balsam and photographed with a biomicroscope.

[3] = tested on: mouse model of renal fibrosis (UUO); assay: Mouse model of renal fibrosis (unilateral ureteral obstruction, UUO)
Method: The therapeutic effect of the compounds of the present invention (as exemplified by Compound 1-1 obtained in Example 1) on renal fibrosis was determined using a mouse model of renal fibrosis. The method was as follows:
Grouping of animals: male C57BL/6J mice aged 8 weeks were given adaptive feeding for 3 days and grouped into a sham operation group, a sham operation-treatment group, a Unilateral ureteral obstruction (UUO) model group, a low-dose (10 mg/kg) treatment group, a medium-dose (25 mg/kg) treatment group, a high-dose (50 mg/kg) treatment group, a medium-dose (25 mg/kg) treatment group of indole analogue 3-[(1-methyl-1H-indole-2-carbonyl)amino]propionic acid disclosed in CN2019107285315, and a positive control group of losartan (50 mg/kg), with 10 animals in each group. Mice in the model and the treatment groups were anesthetized by intraperitoneal injection of 0.5% sodium pentobarbital at a dose of 0.1 mL/10 g. The mice were fixed on the operating table and cut open in layers from the right side of the mid-abdomen to locate the left kidney, and the ends of the ureter were ligated, while the ureter was cut off between the two ligations; the sham operation group was operated as described above and the ligations were not performed. Post-operative organs were repositioned, sutured, and sterilized with iodophor after suturing was completed. Immediately after operation, the drug was administered by gavage once daily for 14 days. Urine sample collection: animals were placed in separate metabolic cages by group on days 0, 5, 10 and 14 after modelling, without food or water, and urine samples were collected from each group of mice.
The protein levels in urine were determined using Coomassie brilliant blue (CBB) method by using urine protein quantitative test kit (Nanjing Jiancheng Bioengineering Institute). CBB working solution was prepared according to the kit instructions. 0.05 mL of each urine sample was mixed with 3 mL of CBB working solution, the mixture was left to stand for 5 min, and the absorbance value of each sample was determined at 595 nm. The protein levels in each group of urine samples were calculated according to the protein standardization formula: urine protein levels (mg/L)=(measured OD−blank OD)/(standard OD−blank OD)×563 mg/L.
Collection of serum sample: orbital blood from each mouse was collected in an EP tube, placed at 37° C. for 20 minutes, and centrifuged to obtain the upper layer of serum.
Collection of plasma sample: orbital blood from each mouse was collected in an anticoagulation tube, mixed well and stored at 4° C. for later use.
Determination of creatinine levels in urine and serum by the picric acid colorimetric method: creatinine levels in urine and serum were determined by using the creatinine test kit (Nanjing Jiancheng Bioengineering Institute). According to the kit instructions, 1.5 mL of urine sample or serum sample and 0.5 mL of picric acid solution, 0.5 mL of 0.5 mol/L sodium hydroxide solution were mixed, heated in water bath at 37° C. for 10 minutes. The absorbance value of each sample was determined using a UV spectrophotometer at a wavelength of 510 nm. Creatinine levels in samples of each group were calculated according to the formula: creatinine level (μmol/L) in serum or urine=(measured OD value−blank OD value)/(standard OD value−blank OD value)×50 μmol/L×(dilution ratio 201).
Determination of urea nitrogen level in plasma by diacetyl monoxime method: urea nitrogen level was determined was determined by using blood urea nitrogen (BUN) test kit (Nanjing Jiancheng Bioengineering Institute). According to the kit instructions, 0.05 mL of anticoagulated plasma samples were mixed with 1 mL of oxime solution and 1 mL of acid working solution, and the mixtures were placed in a boiling water bath for 15 min. A UV-visible spectrophotometer was used to determine the absorbance values of each tube at a wavelength of 520 nm. […]

[4] = tested on: rat model of pulmonary hypertension induced by monocrotaline; assay: Rat model of pulmonary hypertension induced by monocrotaline
Method: The preventive effect of the compounds of the present invention (as exemplified by compound 1-1 obtained in Example 1) on pulmonary hypertension was determined using a rat model of pulmonary hypertension induced by monocrotaline. The method was as follows:
Grouping of animals: 70 male SD rats with weigh of 200±20 g were randomly divided into 7 groups, i.e., a normal control group, a monocrotaline (MCT) model group, a treatment group of low-dose compound 1-1 (10 mg/kg) (MCT), a treatment group of medium-dose compound 1-1 (25 mg/kg) (MCT), a treatment group of high-dose compound 1-1 (50 mg/kg) (MCT), a treatment group of medium-dose indole analogue 3-[(1-methyl-1H-indole-2-carbonyl)amino]propionic acid (25 mg/kg) disclosed in CN2019107285315 (MCT), and a sildenafil group (150 mg/kg) (MCT), with 10 rats in each group.
Experimental procedure: MCT was prepared as a 2% solution with a mixture of ethanol and saline (2:8) and the solution was injected intraperitoneally once at a dose of 60 mg/kg body weight in all groups except the normal control group. Each rat in the normal control group was injected intraperitoneally once with a solution prepared from ethanol and saline in a volume ratio of 2:8. Compound 1-1 obtained in Example 1, the indole analogue 3-[(1-methyl-1H-indole-2-carbonyl)amino]propionic acid disclosed in CN2019107285315, or the positive drug sildenafil was administered by gavage to the mice in the treatment groups on the day of modelling, and saline was administered by gavage to the mice in the normal control group and the MCT model group. The drugs were administered by gavage once a day for 28 days until 12 hours before test.
Determination of hemodynamic indexes: a polyethylene plastic microcatheter filled with heparin solution (0.9% sodium chloride solution+10 U/mL heparin) was inserted into the right external jugular vein of a rat, and the other end of the microcatheter was connected to a miniature pressure transducer to monitor the pressure changes. […] After 30 minutes of stabilization, the POWERLAB multi-channel intelligent physiological signal acquisition and recording system was applied to acquire, record and analyze the indexes.
Determination of the index of right ventricular (RV) hypertrophy: at the end of the experiment, the heart was removed by dissection of the thorax and the atrial tissue was cut off. The right ventricle (RV), left ventricle (LV), and interventricular septum (S) were isolated along the edge of the interventricular septum, and the RV, LV, and S were weighed after absorbing water with filter paper and the ratio RV/(LV+S) was used to reflect the degree of RV hypertrophy.
Pathological examination of pulmonary vessels: tissue blocks were taken from the same site in the lower lobe of the right lung and fixed in 10% neutral formaldehyde (pH=7.4) for 2 days. Routine paraffin embedding, serial sections, H&E staining and light microscopy were performed to observe morphological changes in small pulmonary arteries.
Effect on inflammatory factors in lung tissue: Lung tissues were collected from each group of rats, homogenates of lung tissue were prepared and centrifuged and supernatants were collected. The protein level in the supernatant was determined by Coomassie brilliant blue method, and tumor necrosis factor-α (TNF-α) in rats was determined by an ELISA kit (Beijing 4A Biotech Co., Ltd.). […]

[5] = gavage once daily 14 days, not statistically different (P>0.05)
[6] = MCT + sildenafil (150 mg/kg) gavage 28 days

Q: For `O=P1(N(CCCl)CCCl)NCCCO1` (stereo not drawn) [CTX, cyclophosphamide, reference compound], which tumor inhibition rate [1] is on record?
A: 60.3%

Q: What does the source list for `CCCCC1=NC2(CCCC2)C(=O)N1Cc1ccc(-c2ccccc2-c2nnn[nH]2)cc1` [irbesartan, reference compound]?
A: serum urea nitrogen level reduced compared with the model group ([2]; 50 mg/kg gavage, 6 weeks): 9.0%; serum urea nitrogen level ([2]; 50 mg/kg gavage, 6 weeks, model 16.08±0.23): 14.63 ± 0.19 mmol/L; urine protein level ([2]; 50 mg/kg gavage, 6 weeks, model 547.0±106.3): 382 ± 80.8 mg/L; glomerular lesions, renal tissue pathology (H&E, PAS, Sirius red stain) ([2]; FIG. 1, control compound 25 mg/kg, irbesartan 50 mg/kg): shows the same effect; body weight compared with the FSGS group ([2]; gavage daily 6 weeks, compound 1-1 10, 25, 50 mg/kg, control compound 25 mg/kg, irbesartan 50 mg/kg): increased body weights

Q: With `CCCCc1nc(Cl)c(CO)n1Cc1ccc(-c2ccccc2-c2nn[nH]n2)cc1` [losartan, reference compound] as the molecule, how does the “creatinine level reduced compared with the model group” value ([3]; 50 mg/kg gavage 14 days) read?
A: 19.0%

Q: And the “urea nitrogen level reduced compared with the model group” value ([3]; 50 mg/kg gavage 14 days)?
A: 29.7%

Q: What about the “urine protein level reduced compared with the model group” value ([3]; 50 mg/kg gavage 14 days) of the same molecule?
A: 46.6%

Q: What about the urea nitrogen level ([3]; 50 mg/kg gavage 14 days, model 17.56±0.48) of the same molecule?
A: 12.35 ± 0.37 mmol/L

Q: And the serum creatinine level ([3]; 50 mg/kg gavage 14 days, model 32.48±0.87)?
A: 26.32 ± 1.12 µmol/L

Q: What about the urine protein level ([3]; 50 mg/kg gavage 14 days, model 888.5±264.8) of the same molecule?
A: 475 ± 112 mg/L

Q: And the “extent of renal fibrosis, pathological staining (H&E, Masson, Sirius red)” value ([3]; FIG. 2, control compound 25 mg/kg, losartan 50 mg/kg)?
A: shows the same effect

Q: And the “body weight compared with the UUO model group” value [3, 5]?
A: slight increase in body weight

Q: What about the “kidney weight compared with the UUO model group” value [3, 5] of the same molecule?
A: slight decrease in kidney weight

Q: For `CCCc1nn(C)c2c(=O)[nH]c(-c3cc(S(=O)(=O)N4CCN(C)CC4)ccc3OCC)nc12` [sildenafil, reference compound], which “RV/(LV + S)” value [4, 6] is on record?
A: 0.32 ± 0.02

Q: What about the “TNF-α in lung tissue” value [4, 6] of the same molecule?
A: 0.600 ± 06 g/g protein

Q: And the mPAP ([4]; MCT + sildenafil (150 mg/kg) gavage once a day 28 days)?
A: 23.6 ± 3.4 mmHg
